In ChEMBL document CHEMBL1201862, “PubChem BioAssay data set” (2004):
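Assay format: 96-well plates, 48-hour exposure. GI50 is the concentration that inhibits growth by half.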 Activity calls are given as the source filed them. No stated cut-off is given here; in the data, active = GI50 up to about 1.1 µM and inactive = higher.

Assays:
Assay in all cases: NCI anticancer screen, dose series, 48 h
HOP-62 = tested on: HOP-62
786-0 = tested on: 786-0
UO-31 = tested on: UO-31
PC-3 = tested on: PC-3
HT-29 = tested on: HT-29
M14 = tested on: M14
ACHN = tested on: ACHN
SK-MEL-5 = tested on: SK-MEL-5
SF-295 = tested on: SF-295
SK-MEL-28 = tested on: SK-MEL-28
T47D = tested on: T47D
MOLT-4 = tested on: MOLT-4
UACC-257 = tested on: UACC-257
OVCAR-4 = tested on: OVCAR-4
A549 = tested on: A549
COLO 205 = tested on: COLO 205
HCC 2998 = tested on: HCC 2998
SNB-19 = tested on: SNB-19
NCI-H226 = tested on: NCI-H226
NCI/ADR-RES = tested on: NCI/ADR-RES

Measured: GI50

CCN(CC)CC1CCCCN1CC(=O)N1c2ccc(Br)cc2C(=O)Nc2cccnc21 (centres undefined)
inactive: HOP-62 > 100 µM | 786-0 > 100 µM | UO-31 27.2 µM | PC-3 > 100 µM | HT-29 > 100 µM | M14 > 100 µM | ACHN > 100 µM | SK-MEL-5 > 100 µM | SF-295 > 100 µM | SK-MEL-28 > 100 µM | T47D > 100 µM | MOLT-4 > 100 µM | UACC-257 74.8 µM | OVCAR-4 > 100 µM | A549 > 100 µM | COLO 205 > 100 µM | HCC 2998 > 100 µM | SNB-19 > 100 µM | NCI-H226 > 100 µM

COC(=O)Cc1c([C@@H]2Nc3ccccc3[C@H]2CC(=O)OC)[nH]c2ccccc12
inactive: HOP-62 26.9 µM | 786-0 58.2 µM | UO-31 16.6 µM | NCI/ADR-RES 26.9 µM | PC-3 11.1 µM | HT-29 48.5 µM | ACHN 36.6 µM | SK-MEL-5 7.98 µM | SF-295 22.8 µM | SK-MEL-28 28.3 µM | MOLT-4 10.9 µM | UACC-257 24.9 µM | OVCAR-4 23 µM | A549 31.7 µM | COLO 205 16 µM | HCC 2998 45.1 µM | SNB-19 55.6 µM | NCI-H226 71.8 µM

NNC(=O)c1nn[nH]c1SSc1[nH]nnc1C(=O)NN
inactive: HOP-62 > 100 µM | 786-0 > 100 µM | UO-31 > 100 µM | NCI/ADR-RES > 100 µM | PC-3 > 100 µM | HT-29 > 100 µM | M14 > 100 µM | ACHN > 100 µM | SK-MEL-5 > 100 µM | SF-295 > 100 µM | SK-MEL-28 > 100 µM | MOLT-4 > 100 µM | UACC-257 > 100 µM | OVCAR-4 > 100 µM | A549 > 100 µM | COLO 205 > 100 µM | HCC 2998 > 100 µM | SNB-19 > 100 µM | NCI-H226 > 100 µM

CCCC/C=C/C1Cc2ccccc2CN1S(=O)(=O)c1ccc(C)cc1 (centres undefined)
inactive: HOP-62 31.5 µM | 786-0 12.3 µM | UO-31 5.6 µM | HT-29 7.8 µM | M14 11.4 µM | ACHN 5.24 µM | SK-MEL-5 3.28 µM | SF-295 13.9 µM | SK-MEL-28 10.5 µM | MOLT-4 3.97 µM | UACC-257 4.25 µM | OVCAR-4 5.85 µM | A549 5.33 µM | COLO 205 7.29 µM | HCC 2998 12.1 µM | SNB-19 24.2 µM | NCI-H226 10 µM

O=S(=O)(O)c1ccc(/N=N/c2ccc3c(S(=O)(=O)O)cccc3c2O)c2ccccc12
inactive: HOP-62 > 100 µM | 786-0 > 100 µM | UO-31 39.3 µM | NCI/ADR-RES > 100 µM | PC-3 > 100 µM | HT-29 > 100 µM | M14 > 100 µM | ACHN > 100 µM | SK-MEL-5 > 100 µM | SF-295 > 100 µM | SK-MEL-28 > 100 µM | T47D > 100 µM | UACC-257 > 100 µM | OVCAR-4 > 100 µM | A549 > 100 µM | COLO 205 > 100 µM | SNB-19 > 100 µM | NCI-H226 > 100 µM

CC1(c2cccc3ccccc23)OC(=O)c2ccccc21 (centres undefined)
inactive: HOP-62 18.3 µM | 786-0 26.2 µM | UO-31 26 µM | HT-29 20.7 µM | M14 18.2 µM | ACHN 20.3 µM | SK-MEL-5 13.3 µM | SF-295 17.9 µM | SK-MEL-28 27 µM | MOLT-4 15.1 µM | UACC-257 22.2 µM | OVCAR-4 27.7 µM | A549 16.7 µM | COLO 205 16.2 µM | HCC 2998 15.7 µM | SNB-19 30.1 µM | NCI-H226 22.7 µM

O=C(OCCOCBr)c1ccccc1
inactive: HOP-62 > 100 µM | 786-0 > 100 µM | UO-31 > 100 µM | HT-29 > 100 µM | M14 > 100 µM | ACHN > 100 µM | SK-MEL-5 > 100 µM | SF-295 > 100 µM | SK-MEL-28 > 100 µM | MOLT-4 > 100 µM | UACC-257 > 100 µM | OVCAR-4 > 100 µM | A549 > 100 µM | COLO 205 > 100 µM | HCC 2998 > 100 µM | SNB-19 > 100 µM | NCI-H226 > 100 µM

OC1CC(O)c2c(Cl)sc(Cl)c21 (centres undefined)
inactive: HOP-62 21.2 µM | 786-0 34.4 µM | UO-31 28.2 µM | NCI/ADR-RES 43.6 µM | HT-29 17.5 µM | M14 35.2 µM | ACHN 33.2 µM | SK-MEL-5 47 µM | SF-295 8.41 µM | SK-MEL-28 29.9 µM | T47D 26.9 µM | MOLT-4 51.5 µM | UACC-257 24.8 µM | OVCAR-4 8.79 µM | A549 11.7 µM | COLO 205 18.2 µM | NCI-H226 26.3 µM

c1ccc(B2OCC(C3OB(c4ccccc4)OC4COB(c5ccccc5)OC43)O2)cc1 (centres undefined)
inactive: HOP-62 > 100 µM | 786-0 > 100 µM | UO-31 > 100 µM | NCI/ADR-RES > 100 µM | PC-3 > 100 µM | HT-29 > 100 µM | M14 > 100 µM | ACHN > 100 µM | SK-MEL-5 > 100 µM | SF-295 > 100 µM | SK-MEL-28 > 100 µM | T47D > 100 µM | MOLT-4 > 100 µM | UACC-257 > 100 µM | OVCAR-4 > 100 µM | A549 > 100 µM | COLO 205 > 100 µM | SNB-19 > 100 µM

CCOC(=O)NC(OC)(C(F)(F)F)C(F)(F)F
inactive: HOP-62 > 100 µM | 786-0 > 100 µM | UO-31 > 100 µM | NCI/ADR-RES > 100 µM | PC-3 > 100 µM | HT-29 > 100 µM | M14 > 100 µM | ACHN > 100 µM | SK-MEL-5 > 100 µM | SF-295 > 100 µM | SK-MEL-28 > 100 µM | MOLT-4 > 100 µM | UACC-257 > 100 µM | OVCAR-4 > 100 µM | A549 > 100 µM | COLO 205 > 100 µM | HCC 2998 > 100 µM | SNB-19 > 100 µM | NCI-H226 > 100 µM

O=c1c2c(nc3n1CCC3)sc1c(O)c(Br)ccc12
inactive: HOP-62 19.1 µM | 786-0 17.5 µM | UO-31 18.8 µM | HT-29 12.5 µM | M14 > 100 µM | ACHN 14.6 µM | SK-MEL-5 14.5 µM | SF-295 17.3 µM | SK-MEL-28 16.4 µM | MOLT-4 11.1 µM | UACC-257 16.6 µM | OVCAR-4 17.7 µM | A549 15.4 µM | COLO 205 11.8 µM | HCC 2998 17.1 µM | SNB-19 54.7 µM | NCI-H226 19.6 µM

COC(=O)NC(=O)c1cn(C2CCCCC2)c(=O)[nH]c1=O
inactive: HOP-62 > 100 µM | 786-0 > 100 µM | UO-31 > 100 µM | HT-29 > 100 µM | M14 > 100 µM | ACHN > 100 µM | SK-MEL-5 > 100 µM | SF-295 > 100 µM | SK-MEL-28 > 100 µM | MOLT-4 > 100 µM | UACC-257 > 100 µM | OVCAR-4 > 100 µM | A549 > 100 µM | COLO 205 > 100 µM | HCC 2998 > 100 µM | SNB-19 > 100 µM | NCI-H226 > 100 µM

COc1ccccc1/C=C(\C#N)C(=O)c1ccccc1
inactive: HOP-62 > 100 µM | 786-0 > 100 µM | UO-31 > 100 µM | HT-29 > 100 µM | M14 > 100 µM | ACHN > 100 µM | SK-MEL-5 > 100 µM | SF-295 > 100 µM | SK-MEL-28 > 100 µM | MOLT-4 > 100 µM | UACC-257 > 100 µM | OVCAR-4 > 100 µM | A549 > 100 µM | COLO 205 > 100 µM | HCC 2998 > 100 µM | SNB-19 > 100 µM | NCI-H226 > 100 µM

C/C(=N\NC(N)=O)c1sc(-c2nc(C)c(/C(C)=N/NC(N)=O)s2)nc1C
inactive: HOP-62 > 100 µM | 786-0 > 100 µM | UO-31 > 100 µM | HT-29 > 100 µM | M14 > 100 µM | ACHN > 100 µM | SK-MEL-5 > 100 µM | SF-295 > 100 µM | SK-MEL-28 > 100 µM | MOLT-4 > 100 µM | UACC-257 > 100 µM | OVCAR-4 > 100 µM | A549 > 100 µM | COLO 205 53.6 µM | HCC 2998 > 100 µM | SNB-19 > 100 µM | NCI-H226 > 100 µM

Clc1sc(Cl)c2c1[C@@H](Cl)C[C@@H]2Cl
inactive: HOP-62 > 100 µM | 786-0 > 100 µM | UO-31 76 µM | NCI/ADR-RES > 100 µM | HT-29 > 100 µM | M14 > 100 µM | ACHN > 100 µM | SK-MEL-5 > 100 µM | SF-295 > 100 µM | SK-MEL-28 84.9 µM | T47D 45.4 µM | MOLT-4 46.6 µM | UACC-257 > 100 µM | OVCAR-4 74.3 µM | A549 61.9 µM | COLO 205 > 100 µM | HCC 2998 63.4 µM | NCI-H226 57.3 µM

CO/C(=N\N=C\c1ccc(OC)c(OC)c1)c1ccncc1
inactive: HOP-62 > 10 µM | 786-0 > 10 µM | UO-31 9.55 µM | NCI/ADR-RES > 10 µM | M14 > 10 µM | SK-MEL-5 > 10 µM | T47D > 10 µM | MOLT-4 > 10 µM | UACC-257 > 10 µM | OVCAR-4 > 10 µM | A549 > 10 µM | COLO 205 > 10 µM | HCC 2998 > 10 µM | NCI-H226 > 10 µM
